Reference: BigSolDB 2.1

C[C@@H]1O[C@@H](O[C@H]2[C@H](Oc3cc(O)c(C(=O)CCc4ccc(O)cc4)c(O)c3)O[C@H](CO)[C@@H](O)[C@@H]2O)[C@H](O)[C@H](O)[C@H]1O
solubility (mole fraction)
Conditions | 298.15 K | 308.15 K | 318.15 K | 328.15 K | 338.15 K
in ethyl acetate | 0.00031 | 0.000369 | 0.000491 | 0.000668 | 0.000776
in water | 2.13e-05 | 3.78e-05 | 7.12e-05 | 0.000166 | 0.000375
